Measurements reported in patent US11453633B2, “Production method for crystal of reduced coenzyme Q10 having excellent stability” (KANEKA CORPORATION, priority 2018, dated 2022).

Legend:
[1] = compared with the conventional reduced coenzyme Q10 Form I crystal; cited from earlier work
[2] = Reduced coenzyme Q10 concentration dissolved in the liquid phase of the crystallization mixture, by HPLC (Example 11); format: physicochemical; settings: 99.5% ethanol
Experimental: The inside of a 500 mL separable flask (made of borosilicate glass) was replaced with nitrogen, and 40.0 g of reduced coenzyme Q10 and 360 g of 99.5% ethanol were then added thereto (reduced coenzyme Q10 concentration: 10 wt. %). Thereafter, the obtained raw material mixture was warmed to 42° C. while stirring with a stirring blade (power required for stirring: 0.1 kw/m^3) to obtain a homogeneous solution. This solution was cooled to 35° C., and thereafter, 0.4 g (1 wt. %) of reduced coenzyme Q10 crystals comprising reduced coenzyme Q10 Form II crystals were added as seed crystals to the solution.
The mixture obtained after the addition of the seed crystals was kept at 35° C. for 15 hours to precipitate crystals. Thereafter, the mixture was cooled to 25° C. at a constant cooling rate of −2° C./hour over 5 hours, and was then cooled to 10° C. at a constant cooling rate of −10° C./hour over 1.5 hours, to further precipitate crystals. After the temperature had reached 10° C., the mixture was filtered for solid-liquid separation. The obtained crystal was dried under reduced pressure at 35° C. for 10 hours to obtain a reduced coenzyme Q10 Form II crystal (Form II rate: 100%; recovery rate: 97%).
In the present experiment, the liquid phase of the mixture was sampled immediately before addition of the seed crystals (at 0 hour), and then at 3 hours, 6 hours, 9 hours, 12 hours, 15 hours (so far, at 35° C.), 17.5 hours (30° C.), 20 hours (25° C.), 20.5 hours (20° C.), and 21.5 hours (10° C.) after the addition of the seed crystals. The concentration (wt. %) of reduced coenzyme Q10 dissolved in the liquid phase sample was measured according to high performance liquid chromatography.
Conditions for the high performance liquid chromatography, by which the reduced coenzyme Q10 concentration was measured, are shown below.
Column: SYMMETRY C18 (manufactured by Waters); 250 mm (length), 4.6 mm (inner diameter)
Mobile phase: C2H5OH:CH3OH=4:3 (v:v)
Detection wavelength: 210 nm
Retention time of reduced coenzyme Q10: 9.1 min.

[3] = compared with oxidized coenzyme Q10; cited from earlier work

| Compound | stability of the crystal form [1] | Reduced coenzyme Q10 concentration ([2]; crystallization time 0 h (immediately before addition of the seed crystals), 35° C.) [wt %] | Reduced coenzyme Q10 concentration ([2]; crystallization time 3 h, 35° C.) [wt %] | Reduced coenzyme Q10 concentration ([2]; crystallization time 6 h, 35° C.) [wt %] | Reduced coenzyme Q10 concentration ([2]; crystallization time 9 h, 35° C.) [wt %] | Reduced coenzyme Q10 concentration ([2]; crystallization time 12 h, 35° C.) [wt %] | Reduced coenzyme Q10 concentration ([2]; crystallization time 15 h, 35° C.) [wt %] | Reduced coenzyme Q10 concentration ([2]; crystallization time 17.5 h, 30° C.) [wt %] | Reduced coenzyme Q10 concentration ([2]; crystallization time 20 h, 25° C.) [wt %] | Reduced coenzyme Q10 concentration ([2]; crystallization time 20.5 h, 20° C.) [wt %] | Reduced coenzyme Q10 concentration ([2]; crystallization time 21.5 h, 10° C.) [wt %] | oral absorbability [3] |
| --- | --- | --- | --- | --- | --- | --- | --- | --- | --- | --- | --- | --- |
| COc1c(O)c(C)c(C/C=C(\C)CC/C=C(\C)CC/C=C(\C)CC/C=C(\C)CC/C=C(\C)CC/C=C(\C)CC/C=C(\C)CC/C=C(\C)CC/C=C(\C)CCC=C(C)C)c(O)c1OC [reduced coenzyme Q10 Form II crystal, reduced coenzyme Q10] | much more stable | – | – | – | – | – | – | – | – | – | – | – |
| COc1c(O)c(C)c(C/C=C(\C)CC/C=C(\C)CC/C=C(\C)CC/C=C(\C)CC/C=C(\C)CC/C=C(\C)CC/C=C(\C)CC/C=C(\C)CC/C=C(\C)CCC=C(C)C)c(O)c1OC [reduced coenzyme Q10] | – | 10.0 | 9.9 | 9.6 | 9.2 | 8.5 | 7.2 | 3.1 | 1.5 | 0.8 | 0.3 | higher oral absorbability than that of oxidized coenzyme Q10 |
